Data: publication PMC10882719 (Frontiers in Neuroscience, 2024)
Read-outs that look alike come from different tables or passages of the source.

Assays:
Type in all cases: cell-based
168 GPCRs [1] = molecular target: T1, 168 GPCRs (Homo sapiens, UniProt Q9H3N8)
T1 construct: host or cells: PathHunter cell lines

168 GPCRs [2] = molecular target: T2, 168 GPCRs (Homo sapiens, UniProt P34981); settings: TRHR
T2 construct: host or cells: PathHunter cell lines
T2 sequence (P34981 1-398): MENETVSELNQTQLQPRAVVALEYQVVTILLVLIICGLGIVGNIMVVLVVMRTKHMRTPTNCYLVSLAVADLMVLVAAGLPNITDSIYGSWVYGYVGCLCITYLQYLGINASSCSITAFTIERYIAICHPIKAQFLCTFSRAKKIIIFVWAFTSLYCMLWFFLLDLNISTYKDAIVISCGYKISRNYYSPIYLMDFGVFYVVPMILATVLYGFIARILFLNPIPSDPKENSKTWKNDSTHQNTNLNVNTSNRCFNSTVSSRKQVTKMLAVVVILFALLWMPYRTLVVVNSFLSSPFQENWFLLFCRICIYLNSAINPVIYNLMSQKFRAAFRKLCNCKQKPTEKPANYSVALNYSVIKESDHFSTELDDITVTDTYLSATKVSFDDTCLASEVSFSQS

168 GPCRs [3] = molecular target: T3, 168 GPCRs (Homo sapiens, UniProt Q16602)
T3 construct: host or cells: PathHunter cell lines

168 GPCRs [4] = molecular target: T4, 168 GPCRs (Homo sapiens, UniProt Q9H1C0)
T4 construct: host or cells: PathHunter cell lines

168 GPCRs [5] = molecular target: T5, 168 GPCRs (Homo sapiens, UniProt P47211)
T5 construct: host or cells: PathHunter cell lines
T5 sequence (P47211 1-349): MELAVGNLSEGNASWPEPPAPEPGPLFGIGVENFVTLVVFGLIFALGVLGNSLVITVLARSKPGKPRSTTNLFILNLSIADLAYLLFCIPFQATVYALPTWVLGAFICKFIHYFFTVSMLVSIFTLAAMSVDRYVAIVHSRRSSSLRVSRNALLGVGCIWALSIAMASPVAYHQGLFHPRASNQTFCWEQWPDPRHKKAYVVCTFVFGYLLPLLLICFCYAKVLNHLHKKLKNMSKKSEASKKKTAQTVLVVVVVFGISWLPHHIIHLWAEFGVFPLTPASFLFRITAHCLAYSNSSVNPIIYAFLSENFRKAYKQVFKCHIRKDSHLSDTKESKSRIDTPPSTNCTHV

168 GPCRs [6] = molecular target: T6, 168 GPCRs (Homo sapiens, UniProt Q96LB2)
T6 construct: host or cells: PathHunter cell lines

168 GPCRs [7] = molecular target: T7, 168 GPCRs (Homo sapiens, UniProt Q92847); settings: GHSR
T7 construct: host or cells: PathHunter cell lines

168 GPCRs [8] = molecular target: T8, 168 GPCRs (Homo sapiens, UniProt P21731); settings: TBXA2R
T8 construct: host or cells: PathHunter cell lines
T8 sequence (P21731 1-343): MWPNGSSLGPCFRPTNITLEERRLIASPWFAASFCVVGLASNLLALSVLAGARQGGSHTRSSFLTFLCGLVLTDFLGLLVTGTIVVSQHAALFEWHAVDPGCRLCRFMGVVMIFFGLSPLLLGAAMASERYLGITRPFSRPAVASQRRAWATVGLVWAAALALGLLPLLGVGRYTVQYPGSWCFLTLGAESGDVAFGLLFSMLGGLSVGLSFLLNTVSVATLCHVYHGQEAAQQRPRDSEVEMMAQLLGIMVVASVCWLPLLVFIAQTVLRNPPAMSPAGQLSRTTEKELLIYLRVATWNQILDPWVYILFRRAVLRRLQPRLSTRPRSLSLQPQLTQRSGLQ

T4 sequence (Q9H1C0 whole entry): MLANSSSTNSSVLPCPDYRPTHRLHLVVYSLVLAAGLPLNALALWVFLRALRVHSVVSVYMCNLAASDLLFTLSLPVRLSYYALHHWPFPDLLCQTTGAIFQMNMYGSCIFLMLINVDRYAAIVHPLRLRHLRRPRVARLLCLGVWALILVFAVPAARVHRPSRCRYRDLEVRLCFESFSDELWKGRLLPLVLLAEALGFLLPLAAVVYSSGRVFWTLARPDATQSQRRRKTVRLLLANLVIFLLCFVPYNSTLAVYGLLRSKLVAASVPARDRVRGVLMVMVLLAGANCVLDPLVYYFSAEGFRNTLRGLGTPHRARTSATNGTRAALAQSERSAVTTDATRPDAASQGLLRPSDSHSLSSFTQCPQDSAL
T1 sequence (Q9H3N8 whole entry): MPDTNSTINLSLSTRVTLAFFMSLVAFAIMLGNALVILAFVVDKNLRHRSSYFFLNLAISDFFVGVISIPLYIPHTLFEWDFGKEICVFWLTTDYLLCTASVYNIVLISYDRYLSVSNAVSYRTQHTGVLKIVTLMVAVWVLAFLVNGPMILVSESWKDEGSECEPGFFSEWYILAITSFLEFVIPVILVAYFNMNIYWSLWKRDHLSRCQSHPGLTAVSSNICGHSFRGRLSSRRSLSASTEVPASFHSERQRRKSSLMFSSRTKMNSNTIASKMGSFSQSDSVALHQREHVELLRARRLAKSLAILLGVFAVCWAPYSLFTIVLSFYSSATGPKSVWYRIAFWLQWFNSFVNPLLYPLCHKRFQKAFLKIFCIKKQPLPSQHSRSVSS
T6 sequence (Q96LB2 whole entry): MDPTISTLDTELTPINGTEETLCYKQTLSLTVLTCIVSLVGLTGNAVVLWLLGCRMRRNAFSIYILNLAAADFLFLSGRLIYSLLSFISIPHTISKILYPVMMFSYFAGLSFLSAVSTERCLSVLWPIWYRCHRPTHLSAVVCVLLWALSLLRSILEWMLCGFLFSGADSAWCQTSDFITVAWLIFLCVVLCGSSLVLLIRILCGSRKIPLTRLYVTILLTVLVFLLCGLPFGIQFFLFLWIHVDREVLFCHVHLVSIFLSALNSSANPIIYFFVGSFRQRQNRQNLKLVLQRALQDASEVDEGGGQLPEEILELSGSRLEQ
T3 sequence (Q16602 23-461): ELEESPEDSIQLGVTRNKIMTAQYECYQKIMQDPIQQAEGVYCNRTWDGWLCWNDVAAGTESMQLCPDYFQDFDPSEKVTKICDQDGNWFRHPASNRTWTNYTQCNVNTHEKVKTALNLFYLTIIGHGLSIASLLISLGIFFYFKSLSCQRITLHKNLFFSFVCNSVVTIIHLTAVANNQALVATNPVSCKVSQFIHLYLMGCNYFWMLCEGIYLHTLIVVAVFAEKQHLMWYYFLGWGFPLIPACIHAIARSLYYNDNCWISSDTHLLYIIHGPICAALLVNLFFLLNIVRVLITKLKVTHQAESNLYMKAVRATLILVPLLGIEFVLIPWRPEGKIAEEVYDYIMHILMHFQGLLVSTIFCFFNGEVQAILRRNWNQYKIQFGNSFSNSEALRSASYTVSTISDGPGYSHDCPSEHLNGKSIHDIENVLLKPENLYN
T7 sequence (Q92847 whole entry): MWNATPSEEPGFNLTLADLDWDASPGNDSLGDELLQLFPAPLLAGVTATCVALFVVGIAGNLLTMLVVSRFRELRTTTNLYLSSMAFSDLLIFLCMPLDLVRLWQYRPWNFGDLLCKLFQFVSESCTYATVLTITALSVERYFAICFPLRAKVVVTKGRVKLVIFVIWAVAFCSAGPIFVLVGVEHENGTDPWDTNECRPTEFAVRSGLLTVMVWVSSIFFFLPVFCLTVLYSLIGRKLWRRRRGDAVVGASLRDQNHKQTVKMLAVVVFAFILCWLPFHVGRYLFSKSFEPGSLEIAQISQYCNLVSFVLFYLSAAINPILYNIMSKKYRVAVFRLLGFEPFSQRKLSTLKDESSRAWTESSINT

Structure (SMILES) | % Agonist Activity (168 GPCRs [1]; HRH4, 1 uM) [%] | % Antagonist Activity (168 GPCRs [1]; HRH4, 1 uM) [%] | % Agonist Activity (168 GPCRs [1]; HRH4, 10 uM) [%] | % Antagonist Activity (168 GPCRs [1]; HRH4, 10 uM) [%] | % Agonist Activity (168 GPCRs [2]; Conc 1 uM) [%] | % Antagonist Activity (168 GPCRs [2]; Conc 1 uM) [%] | % Agonist Activity (168 GPCRs [2]; Conc 10 uM) [%] | % Antagonist Activity (168 GPCRs [2]; Conc 10 uM) [%] | % Agonist Activity (168 GPCRs [3]; CALCRL-RAMP1, 1 uM) [%] | % Antagonist Activity (168 GPCRs [3]; CALCRL-RAMP1, 1 uM) [%] | % Agonist Activity (168 GPCRs [3]; CALCRL-RAMP1, 10 uM) [%] | % Antagonist Activity (168 GPCRs [3]; CALCRL-RAMP1, 10 uM) [%] | % Agonist Activity (168 GPCRs [3]; CALCRL-RAMP2, 1 uM) [%] | % Antagonist Activity (168 GPCRs [3]; CALCRL-RAMP2, 1 uM) [%] | % Agonist Activity (168 GPCRs [3]; CALCRL-RAMP2, 10 uM) [%] | % Antagonist Activity (168 GPCRs [3]; CALCRL-RAMP2, 10 uM) [%] | % Agonist Activity (168 GPCRs [3]; CALCRL-RAMP3, 1 uM) [%] | % Antagonist Activity (168 GPCRs [3]; CALCRL-RAMP3, 1 uM) [%] | % Agonist Activity (168 GPCRs [3]; CALCRL-RAMP3, 10 uM) [%] | % Antagonist Activity (168 GPCRs [3]; CALCRL-RAMP3, 10 uM) [%] | other results
CNC(C)Cc1ccc2c(c1)OCO2 (centres unmarked) [MDMA, 3,4-Methylenedioxy methamphetamine, reference compound] | 1.9 | 14.5 | 3.1 | 14.5 | -0.4 | 16.2 | -0.1 | 9.9 | 0.3 | 6.8 | -0.6 | 8.1 | -1 | 28.7 | 0.9 | 30.8 | -0.9 | -8.1 | -1.4 | -13 | % Agonist Activity (168 GPCRs [4]; GPR92, 1 uM): -4%; % Antagonist Activity (168 GPCRs [4]; GPR92, 1 uM): 6.8%; % Agonist Activity (168 GPCRs [4]; GPR92, 10 uM): -2.2%; % Antagonist Activity (168 GPCRs [4]; GPR92, 10 uM): 8%; % Agonist Activity (168 GPCRs [5]; GALR1, 1 uM): 0.7%; % Antagonist Activity (168 GPCRs [5]; GALR1, 1 uM): -0.2%; % Agonist Activity (168 GPCRs [5]; GALR1, 10 uM): 0.6%; % Antagonist Activity (168 GPCRs [5]; GALR1, 10 uM): -5.1%; % Agonist Activity (168 GPCRs [6]; MRGPRX1, 1 uM): 0.2%; % Antagonist Activity (168 GPCRs [6]; MRGPRX1, 1 uM): 5.1%; % Agonist Activity (168 GPCRs [6]; MRGPRX1, 10 uM): -0.4%; % Antagonist Activity (168 GPCRs [6]; MRGPRX1, 10 uM): 7.6%; % Agonist Activity (168 GPCRs [7]; 1 uM): 3%; % Antagonist Activity (168 GPCRs [7]; 1 uM): -30.8%; % Agonist Activity (168 GPCRs [7]; 10 uM): 3.1%; % Antagonist Activity (168 GPCRs [7]; 10 uM): -7%; % Agonist Activity (168 GPCRs [8]; Conc 1 uM): 2.8%; % Antagonist Activity (168 GPCRs [8]; Conc 1 uM): 9.4%; % Agonist Activity (168 GPCRs [8]; Conc 10 uM): 1.6%; % Antagonist Activity (168 GPCRs [8]; Conc 10 uM): 14.2%
CNC(C)C(=O)c1ccc2c(c1)OCO2 (centres unmarked) [methylone] | 8.6 | -11.6 | 9 | -14 | -2 | -7.2 | -2.2 | 2.8 | -2.6 | 4.7 | -0.2 | 7 | 0.1 | 19.1 | 2.8 | 7 | -2.2 | -18.5 | -2.2 | -7.5 | % Agonist Activity (168 GPCRs [4]; GPR92, 1 uM): -1.6%; % Antagonist Activity (168 GPCRs [4]; GPR92, 1 uM): -8%; % Agonist Activity (168 GPCRs [4]; GPR92, 10 uM): -3.5%; % Antagonist Activity (168 GPCRs [4]; GPR92, 10 uM): 5.8%; % Agonist Activity (168 GPCRs [5]; GALR1, 1 uM): 0.8%; % Antagonist Activity (168 GPCRs [5]; GALR1, 1 uM): 7.1%; % Agonist Activity (168 GPCRs [5]; GALR1, 10 uM): 0.6%; % Antagonist Activity (168 GPCRs [5]; GALR1, 10 uM): 6.8%; % Agonist Activity (168 GPCRs [6]; MRGPRX1, 1 uM): -1.7%; % Antagonist Activity (168 GPCRs [6]; MRGPRX1, 1 uM): -6.5%; % Agonist Activity (168 GPCRs [6]; MRGPRX1, 10 uM): -1.5%; % Antagonist Activity (168 GPCRs [6]; MRGPRX1, 10 uM): -10.2%; % Agonist Activity (168 GPCRs [7]; 1 uM): -6.6%; % Antagonist Activity (168 GPCRs [7]; 1 uM): 25.8%; % Agonist Activity (168 GPCRs [7]; 10 uM): -7.2%; % Antagonist Activity (168 GPCRs [7]; 10 uM): 9.1%; % Agonist Activity (168 GPCRs [8]; Conc 1 uM): -1.1%; % Antagonist Activity (168 GPCRs [8]; Conc 1 uM): -5.5%; % Agonist Activity (168 GPCRs [8]; Conc 10 uM): -2.9%; % Antagonist Activity (168 GPCRs [8]; Conc 10 uM): -19.7%
